Structures are written as SMILES.

One experiment deals with Ggt. The experiment in a line: Plant pot experiments, control of take-all in wheat (Take-All Index). It counts as in vivo, Gaeumannomyces graminis. The procedure: Agronomic evaluation of control effectiveness of the formulations developed on the Ggt fungus was conducted through the establishment of 26 experiments in plant pots. These experiments allowed to evaluate new formulations, or correct defective aspects of the formulations developed. Evaluation methodology was made under greenhouse and awning conditions, considering: soil use of Yerbas Buenas ([…] Region VII), which was sterilized by autoclave and inoculated with Ggt grown in oat grains during 40 days. Soil was placed in PVC plant pots arranged on a wooden plate, where it was seeded with a wheat seed of cv. Dalcahue-INIA.
In these experiences two sample treatments were used (with and without inoculum) and one commercial sample Silthiofam (Latitude®, Monsanto) in dosis of 2 L/ton of seed to compare the effectiveness of different slow release formulations or “Slow release” based on quillay extract.

For another experiment, the system named is Gaeumannomyces graminis. The experiment in a line: Field tests in Region IX of Chile, root rot in wheat plants. It counts as in vivo. As to conditions: four field experiments, highly rainy season. The text has this: This invention refers to natural fungicides used in seed treatment or soil treatment, that are obtained from quillay extract formulation, rich in saponin concentrations, to which synthetic polymers have been adhered (latex and resins) allowing its slow release in the soil, and which efficiency and control have been tested at a plant pot and field experiment level on fungus Gaeumannomyces graminis, which is the cause of take-all of wheat.

Where [1] appears, read: FIG. 6 experiment, Oct. 3, 2005.
[2] abbreviates: average of plant pot experiments.

For the molecule `C=CCNC(=O)c1c([Si](C)(C)C)sc(C)c1C` [Silthiofam], the “control with respect to the inoculated sample” value in the experiment on Ggt (FIG. 2 experiment, seed treatment, Silthiofam 2 L/ton of seed) was 44%. In addition, the “control with respect to the inoculated sample” value in the experiment with Ggt (FIG. 3 experiment, seed treatments, QL 1000 4 L per ha) stood at 50.8%. Also, in the experiment on Ggt (setting [1]), the “Take-All Index (TAI)” value was 28 and the “control with respect to the non-treated sample” value came out at 71%. Moreover, in the experiment with Ggt (setting [2]), the “Take-All Index (TAI), average among all experiences” value is reported as 24.6 and the “average control level with respect to the inoculated sample” value is listed as 67.5%. Moreover, the “effectiveness in field experiments” value in the experiment on Gaeumannomyces graminis is “did not show effectiveness”.

These data come from patent US20110190123A1, “SLOW-RELEASE FORMULATIONS CONTAINING QUILLAY EXTRACTS, FOR CONTROLLING WHEAT TAKE-ALL DISEASE” (priority 2008, published 2011).
